Test results published in patent US6630310B1, “Assay for binding between carbohydrate and glycolipid” (Biopolymer Engineering Pharmaceutical, Inc., priority 1996, dated 2003).

What was measured:
NF-κB = experiment: EMSA of NF-κB activation in BMC2.3 cells; format: cell-based, murine; settings: 3 μg/ml, various times at 37° C. (FIG. 4)
Experimental: (§1) In order to assess the activation of signal transduction as exemplified by the modulation of one or more transcriptional regulatory factors by underivatized, aqueous soluble β(1-3)-glucan, BMC2.3 cells were incubated with 3 μg/ml underivatized, aqueous soluble β(1-3)-glucan for various periods of time at 37° C. Nuclear extracts were prepared and incubated with ^32P-labeled DNA oligonucleotides specific for NF-κB or NF-IL6. The protein-^32P DNA complexes were separated from unbound ^32P DNA by gel electrophoresis (electrophoretic mobility shift assay, EMSA).
(§2) BMC2.3 cells in DMEM plus 10% fetal calf serum were incubated with 3 μg/ml underivatized, aqueous soluble β(1-3)-glucan for various lengths of time. Nuclear extracts were prepared by the method of Dignam et al. (Nuc. Acid Res. 11:1475-1489 (1983)). Nuclear extracts were then incubated with ^32P-labeled DNA oligonucleotide for twenty minutes at room temperature. The sequence of the oligonucleotide used as the probe was […] (SEQ ID NO: 1). The reaction mixture was then separated on a 4% polyacrylamide gel and the results recorded autoradiographically.

NF-IL6 [1] = experiment: EMSA of NF-IL6 activation in BMC2.3 cells; format: cell-based, murine; settings: 3 μg/ml, various times at 37° C. (FIG. 5)
Experimental: as §1, §2

[2] = test system: human leukocyte membranes; experiment: Direct binding of radioactively labeled underivatized, aqueous soluble β(1-3)-glucan to human leukocyte membranes (time course, concentration-dependence, Scatchard)
Experimental: Bound radioactively labeled underivatized, aqueous soluble β(1-3)-glucan was separated from unbound ligand by centrifugation through a double layer density gradient, and the membrane pellet was solubilized and radioactivity determined. Equilibrium binding was achieved after 60 minutes at 37° C. at a concentration of 1 μg/ml radioactively labeled underivatized, aqueous soluble β(1-3)-glucan (FIG. 1).
Membrane-associated radioactivity was determined following centrifugation of the reaction mixture through a sucrose/oil density gradient as described in the Examples. Specific binding was calculated by subtracting non-specific binding from total binding. […]
Membranes were diluted to 2 to 5 mg/ml in HBSS with and without 1 mg/ml BSA. […] The tubes were spun at 15,000×g for 4-5 minutes and the tips containing the membrane pellets were removed, incubated in 300 μl SOLVABLE™ (New England Nuclear, Boston, Mass.) overnight at 50° C. to dissolve the pellet, and then radioactivity determined by liquid scintillation counting. No radioactivity was found in the oil layer in the absence of added membranes. […]

[3] = test system: receptor for underivatized, aqueous soluble β(1-3)-glucan on human leukocyte membranes; experiment: Competition of ^3H-PGG-Glucan binding to human leukocyte membranes (oil/sucrose binding assay)
Experimental: Aminated glucan was prepared by reductive amination of curdlan and provided by Dr. Rolph Seljelid (University of Tromsφ, Tromsφ, Norway).
At the end of the incubation, 100 μl aliquots of reaction mixture were layered on top of a double layer density gradient consisting of 100 μl dibutyl phthalate (lower layer) and 100 μl 8% sucrose in PBS (upper layer) in 400 μl centrifuge tubes (Brinkman). The tubes were spun at 15,000×g for 4-5 minutes and the tips containing the membrane pellets were removed, incubated in 300 μl SOLVABLE™ (New England Nuclear, Boston, Mass.) overnight at 50° C. to dissolve the pellet, and then radioactivity determined by liquid scintillation counting. […] Alternatively, membranes were centrifuged directly in their incubation tubes at 15,000×g for 4-5 minutes at 37° C., the pellet washed with HBSS, then pellets solubilized and radioactivity determined by liquid scintillation counting.

NF-IL6 [4] = experiment: EMSA of NF-IL6 activation in human neutrophils; format: cell-based; settings: 3 μg/ml, 60 minutes at 37° C., relative to control or dextran (FIG. 16B)
Experimental: Purified human neutrophils were incubated with or without underivatized, aqueous soluble β(1-3)-glucan (3 μg/ml) or dextran (3 μg/ml) for 60 minutes at 37° C. Nuclear extracts were prepared and protein/DNA complex formation assessed by electrophoretic mobility shift assay (EMSA). As shown in FIGS. 16A and 16B, underivatized, aqueous soluble β(1-3)-glucan increased the binding of nuclear extract proteins to an NF-kB or NF-IL6 specific 32P-labeled oligonucleotide probe relative to extracts from either control or dextran-treated neutrophils.
Human neutrophils (4.5×10^6 cells/ml; 10 ml total) purified as described above were incubated in RPMI+10% FCS (Sigma Chemical Co.) for 30 minutes at 37° C. Underivatized, aqueous soluble β(1-3)-glucan or dextran (both at 3 μg/ml) were then added and incubation continued an additional 60 minutes at 37° C. Nothing was added to control cells. At the end of the incubation, cells were washed in ice cold PBS+20 mM EDTA and nuclear extracts prepared and EMSAs performed as described above.

- binding to its receptor at room temperature or below (in words) [2]: does not bind
- competition for ^3H-underivatized, aqueous soluble β(1-3)-glucan binding to HLM (in words) ([3]; FIG. 14): competes
- % Control Binding ([3]; addition at 0.1 mg/ml, ^3H-PGG-Glucan binding to human leukocyte membranes): 22%
Substance: underivatized, aqueous soluble β(1-3)-glucan [PGG-Glucan]
- NF-κB protein-^32P DNA complex formation (EMSA, in words) (NF-κB): time dependent increase in protein-DNA complexes
- NF-IL6 protein-^32P DNA complex formation (EMSA, in words) (NF-IL6 [1]): time dependent increase in protein-DNA complexes
- binding of nuclear extract proteins to NF-IL6 specific 32P-labeled probe (EMSA, in words) (NF-IL6 [4]): increased
